Laboratory results: patent US5336483A (priority 1993, dated 1994)
“Also recorded” adds a separate entry of the source. Like-named read-outs stand apart in the source and are kept apart here.

What was measured:
Low Affinity δ Receptors = assay: Displacement of [^3 H]DADLE, low affinity δ receptors, rat lysed-P2 membranes; format: binding
[1] = system: opiate rich areas of rat brain; assay: In vivo labelling of rat brain determined by autoradiography; settings: i.v. in rats, preliminary
Protocol: The radiolabelled products were stored at -20° C. and used within 1 week of purification. The material was dried down under a gentle stream of nitrogen and redissolved in normal saline prior to intravenous (IV) injection into rats (300 g, male Sprague-Dawley) in a volume of 100 μl/100 g body weight.
Cleavage of the 3-O-acetyl group of [^125 I]3-O-Acetylioxy ([^125 I]10) was performed starting with 315 μCi of [^125 I]3-O-Acetylioxydissolved in 50 μl of acetonitrile. To this solution at 25° C. was added 50 μl of concentrated aqueous ammonia solution and the reaction mixture was allowed to stand at 25° C. for 20 min. The reaction solvent was removed by careful evaporation under a stream of nitrogen. The residue was dissolved in 50 μl of 0.1% aqueous TFA/acetonitrile and purified by HPLC as described above for [^125 I]3-O-Acetylioxy to give [^125 I]1 (279 μCi, 88.5% yield). […] The [^125 I]ioxy eluted with the exact elution profile of unlabelled ioxy(1). The product was stored at -20° C. and used within 1 week of purification. The material was dried down under a gentle stream of nitrogen and redissolved in normal saline prior to intravenous (IV) injection into rats (300 g, male Sprague-Dawley) in a volume of 100 μl/100 g body weight.

[2] = system: morphine-induced analgesia; assay: In vivo antagonist activity: reversal of morphine-induced analgesia, rat paw withdrawal latency test; settings: for paw withdrawal latency after i.v. injection / reversal of behavioral arrest and other opioid effects / duration of reversal: 5 mg/kg i.v.; for paw withdrawal latency after i.v. injection: tested within 5-10 min; for paw withdrawal latency after i.v. injection / duration of reversal: morphine-treated rats; for reversal of behavioral arrest and other opioid effects: morphine sulphate 10 mg/kg s.c.; for prodrug behaviour: acetate esters vs 1 and 2; for blood brain barrier penetration: i.v., inferred from reversal of morphine effects in rats; for antagonist potency in vivo (comparison in words): morphine induced paw withdrawal latency; for reversal of the effects of morphine: rat paw withdrawal latency test
Protocol: Assessment of the ability of compounds 1, 2 and 10, 12 to cross the blood brain barrier was tested in male Sprague-Dawley rats (300 g) acutely treated with morphine. […] A baseline paw withdrawal to a radiant thermal stimulus was obtained in unrestrained animals as described in Iadarola et al., Brain Res. 1988, 455, 205-212 and Hargreaves, Pain 1988, 32, 77-78. The stimulus was set to give a baseline withdrawal latency of approximately 10 sec. and the cutoff was at 18 sec. After baseline testing, morphine sulphate, 10 mg/kg, was injected subcutaneously in a volume of 0.1 ml of saline/100 g of body weight.
Ioxy (1) and epiloxy (2) were evaluated in rat and guinea pig brain membranes for their opiate receptor selectivity and potency. […] This comparison was not made during development of the ^18 F cyclofoxy compounds.

μ receptor = biological target: T1, μ receptor (Rattus norvegicus, UniProt P33535); assay: Displacement of [^3 H]DAGO, μ receptor binding, rat lysed-P2 membranes
T1 construct: and rat lysed-P2 membranes as previously described; from tissue; host or cells: rat brain, lysed-P2 membranes
T1 sequence (P33535 whole entry): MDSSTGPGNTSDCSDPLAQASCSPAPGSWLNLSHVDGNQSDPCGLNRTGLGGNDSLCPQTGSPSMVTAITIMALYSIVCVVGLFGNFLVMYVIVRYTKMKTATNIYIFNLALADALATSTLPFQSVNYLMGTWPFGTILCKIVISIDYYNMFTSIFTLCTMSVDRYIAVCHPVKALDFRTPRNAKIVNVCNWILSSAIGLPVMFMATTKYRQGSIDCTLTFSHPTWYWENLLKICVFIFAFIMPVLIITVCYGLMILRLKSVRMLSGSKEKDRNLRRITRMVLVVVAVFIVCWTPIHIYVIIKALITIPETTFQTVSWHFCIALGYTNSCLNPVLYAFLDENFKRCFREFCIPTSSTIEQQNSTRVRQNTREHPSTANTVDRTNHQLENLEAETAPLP

μ and κ2 receptor = assay: Displacement of [^3 H]CycloFOXY, μ and κ2 receptor binding, rat brain lysed-P2 membranes
κ1 receptor = biological target: T2, κ1 receptor (Cavia porcellus, UniProt P41144); assay: biochemical; format: binding, guinea pig
T2 construct: from tissue; host or cells: guinea pig brain membranes, pretreated with BIT and FIT
T2 sequence (P41144 whole entry): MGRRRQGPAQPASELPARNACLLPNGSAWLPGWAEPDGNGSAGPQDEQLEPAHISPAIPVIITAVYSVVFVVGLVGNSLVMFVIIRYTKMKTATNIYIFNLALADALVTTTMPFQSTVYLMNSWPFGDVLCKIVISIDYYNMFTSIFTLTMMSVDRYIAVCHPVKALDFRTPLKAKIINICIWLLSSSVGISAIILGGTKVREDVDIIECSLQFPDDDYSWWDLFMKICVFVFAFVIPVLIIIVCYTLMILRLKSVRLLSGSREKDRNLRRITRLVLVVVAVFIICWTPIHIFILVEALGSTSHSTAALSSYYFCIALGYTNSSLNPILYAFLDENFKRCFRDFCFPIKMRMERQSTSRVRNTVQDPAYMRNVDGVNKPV

[3] = biological target: T3, High Affinity δ Receptors (Rattus norvegicus, UniProt P33533); assay: Displacement of [^3 H]DADLE, high affinity δ receptors, rat lysed-P2 membranes; format: binding
T3 construct: and rat lysed-P2 membranes as previously described; from tissue; host or cells: rat lysed-P2 membranes (brain)
T3 sequence (P33533 whole entry): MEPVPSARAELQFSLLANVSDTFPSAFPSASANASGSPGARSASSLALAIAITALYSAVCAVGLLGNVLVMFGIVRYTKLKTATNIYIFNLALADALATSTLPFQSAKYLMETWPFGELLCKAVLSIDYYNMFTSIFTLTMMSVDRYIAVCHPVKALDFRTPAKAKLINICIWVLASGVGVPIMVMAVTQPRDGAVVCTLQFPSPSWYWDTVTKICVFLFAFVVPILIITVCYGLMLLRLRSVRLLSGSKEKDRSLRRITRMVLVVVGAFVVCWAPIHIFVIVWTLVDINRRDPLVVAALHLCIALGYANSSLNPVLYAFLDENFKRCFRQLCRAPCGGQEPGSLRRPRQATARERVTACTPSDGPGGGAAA

κ2 receptor = assay: Displacement of [^3 H]BRM (bremazocine), κ2 receptor binding, guinea pig brain membranes depleted of μ and δ sites; settings: for less potent (fold) than ioxy: [^3 H]BRM displacement

[D-ala^2, D-leu^5 ]enkephalin [[^3 H] DADLE, reference compound]
Kd (Low Affinity δ Receptors; [^3 H]DADLE, low affinity δ, δcx site, read-out: Kd of radioligand): 12.2 nM

CC(=O)Oc1ccc2c3c1O[C@H]1[C@H]([125I])CC[C@@]4(O)[C@@H](C2)N(CC2CC2)CC[C@]314 [[^125 I]10, [^125 I]3-Acetoxy-6β-Iodo-14-Hydroxy-17-Cyclopropylmethyl-4,5α-Epoxymorphinan]
in vivo labelling of rat brain [1]: could label opiate rich areas of rat brain

CC(=O)Oc1ccc2c3c1O[C@H]1[C@H](I)CC[C@@]4(O)[C@@H](C2)N(CC2CC2)CC[C@]314 [Compound 10, 3-Acetoxy-6β-Iodo-14-Hydroxy-17-Cyclopropylmethyl-4,5α-Epoxymorphinan]
paw withdrawal latency after i.v. injection [2]: returned to near baseline values | reversal of behavioral arrest and other opioid effects [2]: reversed in a matter of seconds | duration of reversal [2]: at least 40 min | prodrug behaviour [2]: served as prodrug forms of 1 and 2 | blood brain barrier penetration [2]: getting into the brain; also recorded: penetrated the blood brain barrier more effectively | antagonist potency in vivo (comparison in words) [2]: more potent effects on morphine induced paw withdrawal latency than their corresponding phenolic counterparts | reversal of the effects of morphine [2]: complete reversal of the effects of morphine

Oc1ccc2c3c1O[C@H]1[C@@H](I)CC[C@@]4(O)[C@@H](C2)N(CC2CC2)CC[C@]314 [EpilOXY, 6α-Iodo-3,14-Dihydroxy-17-Cyclopropylmethyl-4,5α-Epoxymorphinan]
IC50 (μ receptor): 7.16 ± 0.72 nM | Ki (μ receptor): 2.09 nM | N (slope factor) (μ receptor; [^3 H]DAGO displacement): 0.95 ± .08 | lower affinity / less potent (fold) than ioxy (μ receptor; [^3 H]DAGO displacement): 2 fold | IC50 (μ and κ2 receptor): 4.34 ± 0.19 nM | Ki (μ and κ2 receptor): 1.65 nM | reduction in affinity (fold) compared with ioxy (1) (μ and κ2 receptor; [^3 H]CycloFOXY displacement): 6 fold | paw withdrawal latency after i.v. injection [2]: returned to near baseline values | reversal of behavioral arrest and other opioid effects [2]: reversed in a matter of seconds | duration of reversal [2]: at least 40 min | blood brain barrier penetration [2]: getting into the brain | reversal of the effects of morphine [2]: complete reversal of the effects of morphine | IC50 (κ1 receptor): 3.17 ± 0.06 nM | Ki (κ1 receptor): 1.49 nM | N (slope factor) (κ1 receptor): 1.10 ± .02 | less potent (fold) than ioxy (κ1 receptor): 4 fold | IC50 (Low Affinity δ Receptors): 8.06 ± 0.58 nM | Ki (Low Affinity δ Receptors): 6.88 nM | lower affinity (fold) than ioxy (1) (Low Affinity δ Receptors; [^3 H]DADLE, low affinity δ): 3 fold | Ki [3]: 46.2 nM | N (slope factor) ([3]; [^3 H]DADLE, high affinity δ): 0.99 ± .07 | lowered affinity / less potent (fold) than ioxy (1) ([3]; [^3 H]DADLE, high affinity δ): 4 fold | IC50 ([3]; read-out: IC50): 101 ± 8.4 nM | IC50 (κ2 receptor): 23.7 ± 1.1 nM | Ki (κ2 receptor): 8.46 nM | less potent (fold) than ioxy (κ2 receptor): 3 fold

Oc1ccc2c3c1O[C@H]1[C@H]([125I])CC[C@@]4(O)[C@@H](C2)N(CC2CC2)CC[C@]314 [[^125 I]1]
in vivo labelling of rat brain [1]: could label opiate rich areas of rat brain

Oc1ccc2c3c1O[C@H]1[C@H](F)CC[C@@]4(O)[C@@H](C2)N(CC2CC2)CC[C@]314 [CycloFOXY, 6β-fluoro-3,14-dihydroxy-17-cyclopropyl methyl-4,5α-epoxymorphinan, reference compound]
kappa selectivity κ1/μ (κ1 receptor; ratio κ1/μ): 0.89

Oc1ccc2c3c1O[C@H]1[C@H](I)CC[C@@]4(O)[C@@H](C2)N(CC2CC2)CC[C@]314 [IOXY, 6β-Iodo-3,14-Dihydroxy-17-Cyclopropylmethyl-4,5α-Epoxymorphinan]
IC50 (μ receptor): 2.74 ± 0.21 nM | Ki (μ receptor): 0.8 nM | N (slope factor) (μ receptor; [^3 H]DAGO displacement): 1.05 ± .07 | relative potency in words (μ receptor; [^3 H]DAGO displacement): most potent | IC50 (μ and κ2 receptor): 0.77 ± 0.05 nM | Ki (μ and κ2 receptor): 0.29 nM | relative affinity / potency in words (μ and κ2 receptor; [^3 H]CycloFOXY displacement): more potent than the opiate antagonist, naltrexone | paw withdrawal latency after i.v. injection [2]: returned to near baseline values | reversal of behavioral arrest and other opioid effects [2]: reversed in a matter of seconds | duration of reversal [2]: at least 40 min | blood brain barrier penetration [2]: readily passed the blood brain barrier | blood brain barrier penetration ([2]; listed as 1): getting into the brain | antagonist potency in vivo (comparison in words) ([2]; listed as Ioxy): more potent in vivo than compound 2 and cyclofoxy | antagonist potency in vivo (comparison in words) ([2]; listed as ioxy): potent opioid receptor antagonist in the rat; also recorded: more effective than epiioxy | reversal of the effects of morphine [2]: complete reversal of the effects of morphine | IC50 (κ1 receptor): 0.89 ± 0.01 nM | Ki (κ1 receptor): 0.42 nM | N (slope factor) (κ1 receptor): 1.04 ± .02 | kappa selectivity κ1/μ (κ1 receptor): 1.9 | relative potency in words (κ1 receptor): most potent displacers | Ki (Low Affinity δ Receptors): 2.25 nM | relative affinity in words (Low Affinity δ Receptors; [^3 H]DADLE, low affinity δ): highest affinity of all the compounds tested | IC50 (Low Affinity δ Receptors; […], ligand concentration = 2.1 nM): 2.64 ± 0.21 nM | IC50 [3]: 5.6 ± 3.1 nM | Ki [3]: 11.7 nM | N (slope factor) ([3]; [^3 H]DADLE, high affinity δ): 0.77 ± .07 | IC50 (κ2 receptor): 7.65 ± 0.23 nM | Ki (κ2 receptor): 2.73 nM | kappa selectivity κ2/μ (κ2 receptor; ratio κ2/μ): 0.3

Oc1ccc2c3c1O[C@H]1[C@H](Br)CC[C@@]4(O)[C@@H](C2)N(CC2CC2)CC[C@]314 [CycloBROXY, reference compound]
IC50 (μ receptor): 4.21 ± 0.14 nM | Ki (μ receptor): 1.23 nM | N (slope factor) (μ receptor; [^3 H]DAGO displacement): 1.05 ± .04 | lower affinity / less potent (fold) than ioxy (μ receptor; [^3 H]DAGO displacement): about 1.5 fold | IC50 (μ and κ2 receptor): 3.14 ± 0.11 nM | Ki (μ and κ2 receptor): 1.19 nM | relative affinity / potency in words (μ and κ2 receptor; [^3 H]CycloFOXY displacement): intermediate receptor affinity | IC50 (κ1 receptor): 0.7 ± 0.02 nM | Ki (κ1 receptor): 0.32 nM | N (slope factor) (κ1 receptor; [^3 H]U69,593 displacement): 1.03 ± .03 | relative potency in words (κ1 receptor; [^3 H]U69,593 displacement): most potent displacers | IC50 (Low Affinity δ Receptors): 5.77 ± 0.14 nM | Ki (Low Affinity δ Receptors): 4.92 nM | Ki [3]: 1.96 nM | N (slope factor) ([3]; [^3 H]DADLE, high affinity δ): 0.99 ± .09 | higher affinity (fold) ([3]; [^3 H]DADLE, high affinity δ): 6 fold | IC50 ([3]; read-out: IC50): 4.3 nM | IC50 (κ2 receptor): 20.2 ± 1.2 nM | Ki (κ2 receptor): 7.21 nM | less potent (fold) than ioxy (κ2 receptor): 3 fold

Oc1ccc2c3c1O[C@H]1[C@H](F)CC[C@@]4(O)[C@@H](C2)N(CC2CC2)CC[C@]314 [[^3 H]CycloFOXY, reference compound]
Kd (μ and κ2 receptor; [^3 H]CycloFOXY, read-out: Kd of radioligand): 0.8 nM

O=C1CC[C@@]2(O)[C@H]3Cc4ccc(O)c5c4[C@@]2(CCN3CC2CC2)[C@H]1O5 [Naltrexone, reference compound]
paw withdrawal latency after i.v. injection [2]: returned to near baseline values | reversal of behavioral arrest and other opioid effects [2]: reversed in a matter of seconds | reversal of the effects of morphine [2]: complete reversal of the effects of morphine

CC(=O)Oc1ccc2c3c1O[C@H]1[C@@H](I)CC[C@@]4(O)[C@@H](C2)N(CC2CC2)CC[C@]314 [Compound 12, 3-Acetoxy-6α-Iodo-14-Hydroxy-17-Cyclopropylmethyl-4,5α-Epoxymorphinan]
paw withdrawal latency after i.v. injection [2]: returned to near baseline values | reversal of behavioral arrest and other opioid effects [2]: reversed in a matter of seconds | duration of reversal [2]: at least 40 min | prodrug behaviour [2]: served as prodrug forms of 1 and 2 | blood brain barrier penetration [2]: getting into the brain; also recorded: penetrated the blood brain barrier more effectively | antagonist potency in vivo (comparison in words) [2]: more potent effects on morphine induced paw withdrawal latency than their corresponding phenolic counterparts | reversal of the effects of morphine [2]: complete reversal of the effects of morphine
